Results as given in PMC10870114 (Clinical Cancer Research, 2023).

Assays:
[1] = tested on: patients with locally advanced rectal cancer; experiment: Dose-limiting toxicities; assay type: in vivo, human
[2] = Plasma pharmacokinetics on fraction day; assay type: in vivo, human
[3] = tested on: locally advanced rectal cancer; experiment: Tumor response; assay type: in vivo, human
[4] = tested on: patients with locally advanced head and neck cancer; conditions: NCT02516813; cited from earlier work
[5] = tested on: patients with locally advanced rectal cancer; experiment: Treatment-emergent adverse events; assay type: in vivo, human
DNA-PK = DNA-PK (Homo sapiens, UniProt P78527); experiment: pDNA-PK/tDNA-PK ratio in bleomycin-stimulated PBMCs, pre- and post-dosing; conditions: PBMCs stimulated with bleomycin ex vivo; evidence of target engagement
[6] = Overall, peposertib 50-250 mg + RT + capecitabine, n = 19
[7] = peposertib 50 mg + RT + capecitabine, n = 1
[8] = peposertib 100 mg + RT + capecitabine, n = 6
[9] = peposertib 150 mg + RT + capecitabine, n = 6
[10] = peposertib 250 mg + RT + capecitabine, n = 6

COc1ccc([C@@H](O)c2cc(-c3ncnc4cc(N5CCOCC5)ccc34)c(F)cc2Cl)nn1 [Peposertib]
DLT reported overall ([1]; all dose cohorts): five
Peposertib dose considered tolerable in combination with RT and capecitabine ([1]; based on the totality of safety data): ≤ 150 mg once daily
Dose-limiting toxicities, patients with DLT of evaluable patients ([1]; peposertib 100 mg once daily + CRT, radiation skin injury and enterocolitis): one out of five
Dose-limiting toxicities, patients with DLT of evaluable patients ([1]; peposertib 250 mg once daily + CRT, two enterocolitis and one proctitis): three out of six
MTD and RP2D ([1]; peposertib + capecitabine-based CRT, study enrollment prematurely discontinued): not declared
Dose proportionality of exposure ([2]; across all dose levels after single and multiple dosing): dose proportional
half-life ([2]; human, plasma, oral, Mean terminal half-life, all dosing groups, independent of the dose level): 5 to 6 h
Accumulation after multiple once-daily dosing ([2]; in vivo): No relevant peposertib accumulation
cCR rate ([3]; 8 weeks after CRT completion, all cohorts, n = 3 of 19): 15.8%
Clinical complete response: Responders [3, 6]: 3 (15.8) n (%)
Clinical response: Complete response [3, 6]: 3 (15.8) n (%)
Clinical response: Incomplete response [3, 6]: 4 (21.1) n (%)
Clinical response: Near-complete response [3, 6]: 8 (42.1) n (%)
Clinical response: Progressive disease [3, 6]: 0 (0) n (%)
Composite endpoint cCR/pCR: Responders [3, 6]: 1 (5.3) n (%)
Pathologic complete response: Responders [3, 6]: 0 (0) n (%)
Composite endpoint cCR/pCR rate ([3]; all cohorts, one of 19 patients (100-mg cohort)): 5.3%
Patients achieving pCR ([3]; of the nine patients who opted for surgery): none
Clinical complete response: Responders [3, 7]: 0 (0) n (%)
Clinical response: Complete response [3, 7]: 0 (0) n (%)
Clinical response: Incomplete response [3, 7]: 0 (0) n (%)
Clinical response: Near-complete response [3, 7]: 1 (100) n (%)
Clinical response: Progressive disease [3, 7]: 0 (0) n (%)
Composite endpoint cCR/pCR: Responders [3, 7]: 0 (0) n (%)
Pathologic complete response: Responders [3, 7]: 0 (0) n (%)
Clinical complete response: Responders [3, 8]: 1 (16.7) n (%)
Clinical response: Complete response [3, 8]: 1 (16.7) n (%)
Clinical response: Incomplete response [3, 8]: 1 (16.7) n (%)
Clinical response: Near-complete response [3, 8]: 2 (33.3) n (%)
Clinical response: Progressive disease [3, 8]: 0 (0) n (%)
Composite endpoint cCR/pCR: Responders [3, 8]: 1 (16.7) n (%)
Pathologic complete response: Responders [3, 8]: 0 (0) n (%)
Clinical complete response: Responders [3, 9]: 1 (16.7) n (%)
Clinical response: Complete response [3, 9]: 1 (16.7) n (%)
Clinical response: Incomplete response [3, 9]: 2 (33.3) n (%)
Clinical response: Near-complete response [3, 9]: 2 (33.3) n (%)
Clinical response: Progressive disease [3, 9]: 0 (0) n (%)
Composite endpoint cCR/pCR: Responders [3, 9]: 0 (0) n (%)
Pathologic complete response: Responders [3, 9]: 0 (0) n (%)
Clinical complete response: Responders [3, 10]: 1 (16.7) n (%)
Clinical response: Complete response [3, 10]: 1 (16.7) n (%)
Clinical response: Incomplete response [3, 10]: 1 (16.7) n (%)
Clinical response: Near-complete response [3, 10]: 3 (50.0) n (%)
Clinical response: Progressive disease [3, 10]: 0 (0) n (%)
Composite endpoint cCR/pCR: Responders [3, 10]: 0 (0) n (%)
Pathologic complete response: Responders [3, 10]: 0 (0) n (%)
Safety of combination with RT and full doses of cisplatin [4]: could not be safely combined
Grade 4 TEAE: lymphocyte count decrease ([5]; 100-mg cohort): 1 n
Grade 4 TEAE: lymphopenia ([5]; 100-mg cohort): 1 n
Grade 4 TEAE: lymphopenia ([5]; 150-mg cohort): 1 n
Grade 4 TEAE: enterocolitis ([5]; 250-mg cohort): 1 n
Grade 4 TEAE: leukopenia and lymphocyte count decrease ([5]; 250-mg cohort): 1 n
Patients with any Capecitabine-related TEAE [5, 6]: 19 (100) n (%)
Patients with any Capecitabine-related grade ≥3 TEAE [5, 6]: 10 (53) n (%)
Patients with any Capecitabine-related grade ≥4 TEAE [5, 6]: 5 (26) n (%)
Patients with any Capecitabine-related serious TEAE [5, 6]: 5 (26) n (%)
Patients with any Grade ≥3 TEAE [5, 6]: 14 (74) n (%)
Patients with any Grade ≥4 TEAE [5, 6]: 5 (26) n (%)
Patients with any Peposertib-related TEAE [5, 6]: 17 (90) n (%)
Patients with any Peposertib-related grade ≥ 3TEAE [5, 6]: 13 (68) n (%)
Patients with any Peposertib-related grade ≥4 TEAE [5, 6]: 5 (26) n (%)
Patients with any Peposertib-related serious TEAE [5, 6]: 6 (32) n (%)
Patients with any RT-related TEAE [5, 6]: 19 (100) n (%)
Patients with any RT-related grade ≥3 TEAE [5, 6]: 9 (47) n (%)
Patients with any RT-related grade ≥4 TEAE [5, 6]: 4 (21) n (%)
Patients with any RT-related serious TEAE [5, 6]: 5 (26) n (%)
Patients with any Serious TEAE [5, 6]: 7 (37) n (%)
Patients with any TEAE [5, 6]: 19 (100) n (%)
Patients with any TEAE leading to death [5, 6]: 0 n (%)
Patients with any TEAE leading to permanent discontinuation of RT [5, 6]: 2 (11) n (%)
Patients with any TEAE leading to permanent discontinuation of capecitabine [5, 6]: 3 (15.8) n (%)
Patients with any TEAE leading to permanent discontinuation of peposertib [5, 6]: 4 (21) n (%)
Patients with any TEAE leading to study discontinuation [5, 6]: 0 n (%)
Most frequently reported TEAE: fatigue ([5]; across all cohorts, n = 9): 47.4%
Most frequently reported TEAE: nausea ([5]; across all cohorts, n = 9): 47.4%
Most frequently reported TEAE: proctitis ([5]; across all cohorts, n = 9): 47.4%
Most frequently reported TEAE: diarrhea ([5]; across all cohorts, n = 15): 78.9%
Patients with grade ≥3 TEAE ([5]; all cohorts, 14 of 19 patients): 73.7%
Grade ≥3 TEAE: diarrhea ([5]; all cohorts, n = 19): 15.8%
Grade ≥3 TEAE: enterocolitis ([5]; all cohorts, n = 19): 15.8%
Grade ≥3 TEAE: lymphocyte count decreased ([5]; all cohorts, n = 19): 36.8%
Grade ≥3 TEAE: lymphopenia ([5]; all cohorts, n = 19): 21.1%
Patients with any Capecitabine-related TEAE [5, 7]: 1 (100) n (%)
Patients with any Capecitabine-related grade ≥3 TEAE [5, 7]: 0 (0) n (%)
Patients with any Capecitabine-related grade ≥4 TEAE [5, 7]: 0 (0) n (%)
Patients with any Capecitabine-related serious TEAE [5, 7]: 0 n (%)
Patients with any Grade ≥3 TEAE [5, 7]: 0 (0) n (%)
Patients with any Grade ≥4 TEAE [5, 7]: 0 (0) n (%)
Patients with any Peposertib-related TEAE [5, 7]: 1 (100) n (%)
Patients with any Peposertib-related grade ≥ 3TEAE [5, 7]: 0 (0) n (%)
Patients with any Peposertib-related grade ≥4 TEAE [5, 7]: 0 (0) n (%)
Patients with any Peposertib-related serious TEAE [5, 7]: 0 n (%)
Patients with any RT-related TEAE [5, 7]: 1 (100) n (%)
Patients with any RT-related grade ≥3 TEAE [5, 7]: 0 (0) n (%)
Patients with any RT-related grade ≥4 TEAE [5, 7]: 0 (0) n (%)
Patients with any RT-related serious TEAE [5, 7]: 0 n (%)
Patients with any Serious TEAE [5, 7]: 0 n (%)
Patients with any TEAE [5, 7]: 1 (100) n (%)
Patients with any TEAE leading to death [5, 7]: 0 n (%)
Patients with any TEAE leading to permanent discontinuation of RT [5, 7]: 0 (0) n (%)
Patients with any TEAE leading to permanent discontinuation of capecitabine [5, 7]: 0 (0) n (%)
Patients with any TEAE leading to permanent discontinuation of peposertib [5, 7]: 0 (0) n (%)
Patients with any TEAE leading to study discontinuation [5, 7]: 0 n (%)
Patients with any Capecitabine-related TEAE [5, 8]: 6 (100) n (%)
Patients with any Capecitabine-related grade ≥3 TEAE [5, 8]: 2 (33) n (%)
Patients with any Capecitabine-related grade ≥4 TEAE [5, 8]: 2 (33) n (%)
Patients with any Capecitabine-related serious TEAE [5, 8]: 2 (33) n (%)
Patients with any Grade ≥3 TEAE [5, 8]: 4 (67) n (%)
Patients with any Grade ≥4 TEAE [5, 8]: 2 (33) n (%)
Patients with any Peposertib-related TEAE [5, 8]: 5 (83) n (%)
Patients with any Peposertib-related grade ≥ 3TEAE [5, 8]: 3 (50) n (%)
Patients with any Peposertib-related grade ≥4 TEAE [5, 8]: 2 (33) n (%)
Patients with any Peposertib-related serious TEAE [5, 8]: 2 (33) n (%)
Patients with any RT-related TEAE [5, 8]: 6 (100) n (%)
Patients with any RT-related grade ≥3 TEAE [5, 8]: 2 (33) n (%)
Patients with any RT-related grade ≥4 TEAE [5, 8]: 1 (17) n (%)
Patients with any RT-related serious TEAE [5, 8]: 2 (33) n (%)
Patients with any Serious TEAE [5, 8]: 3 (50) n (%)
Patients with any TEAE [5, 8]: 6 (100) n (%)
Patients with any TEAE leading to death [5, 8]: 0 n (%)
Patients with any TEAE leading to permanent discontinuation of RT [5, 8]: 0 (0) n (%)
Patients with any TEAE leading to permanent discontinuation of capecitabine [5, 8]: 0 (0) n (%)
Patients with any TEAE leading to permanent discontinuation of peposertib [5, 8]: 0 (0) n (%)
Patients with any TEAE leading to study discontinuation [5, 8]: 0 n (%)
Patients with any Capecitabine-related TEAE [5, 9]: 6 (100) n (%)
Patients with any Capecitabine-related grade ≥3 TEAE [5, 9]: 2 (33) n (%)
Patients with any Capecitabine-related grade ≥4 TEAE [5, 9]: 1 (17) n (%)
Patients with any Capecitabine-related serious TEAE [5, 9]: 0 n (%)
Patients with any Grade ≥3 TEAE [5, 9]: 4 (67) n (%)
Patients with any Grade ≥4 TEAE [5, 9]: 1 (17) n (%)
Patients with any Peposertib-related TEAE [5, 9]: 5 (83.3) n (%)
Patients with any Peposertib-related grade ≥ 3TEAE [5, 9]: 4 (67) n (%)
Patients with any Peposertib-related grade ≥4 TEAE [5, 9]: 1 (17) n (%)
Patients with any Peposertib-related serious TEAE [5, 9]: 0 n (%)
Patients with any RT-related TEAE [5, 9]: 6 (100) n (%)
Patients with any RT-related grade ≥3 TEAE [5, 9]: 2 (33) n (%)
Patients with any RT-related grade ≥4 TEAE [5, 9]: 1 (17) n (%)
Patients with any RT-related serious TEAE [5, 9]: 0 n (%)
Patients with any Serious TEAE [5, 9]: 0 n (%)
Patients with any TEAE [5, 9]: 6 (100) n (%)
Patients with any TEAE leading to death [5, 9]: 0 n (%)
Patients with any TEAE leading to permanent discontinuation of RT [5, 9]: 1 (17) n (%)
Patients with any TEAE leading to permanent discontinuation of capecitabine [5, 9]: 1 (17) n (%)
Patients with any TEAE leading to permanent discontinuation of peposertib [5, 9]: 1 (17) n (%)
Patients with any TEAE leading to study discontinuation [5, 9]: 0 n (%)
Patients with any Capecitabine-related TEAE [5, 10]: 6 (100) n (%)
Patients with any Capecitabine-related grade ≥3 TEAE [5, 10]: 6 (100) n (%)
Patients with any Capecitabine-related grade ≥4 TEAE [5, 10]: 2 (33) n (%)
Patients with any Capecitabine-related serious TEAE [5, 10]: 3 (50) n (%)
Patients with any Grade ≥3 TEAE [5, 10]: 6 (100) n (%)
Patients with any Grade ≥4 TEAE [5, 10]: 2 (33) n (%)
Patients with any Peposertib-related TEAE [5, 10]: 6 (100) n (%)
Patients with any Peposertib-related grade ≥ 3TEAE [5, 10]: 6 (100) n (%)
Patients with any Peposertib-related grade ≥4 TEAE [5, 10]: 2 (33) n (%)
Patients with any Peposertib-related serious TEAE [5, 10]: 4 (67) n (%)
Patients with any RT-related TEAE [5, 10]: 6 (100) n (%)
Patients with any RT-related grade ≥3 TEAE [5, 10]: 5 (83.3) n (%)
Patients with any RT-related grade ≥4 TEAE [5, 10]: 2 (33) n (%)
Patients with any RT-related serious TEAE [5, 10]: 3 (50) n (%)
Patients with any Serious TEAE [5, 10]: 4 (67) n (%)
Patients with any TEAE [5, 10]: 6 (100) n (%)
Patients with any TEAE leading to death [5, 10]: 0 n (%)
Patients with any TEAE leading to permanent discontinuation of RT [5, 10]: 1 (17) n (%)
Patients with any TEAE leading to permanent discontinuation of capecitabine [5, 10]: 2 (33) n (%)
Patients with any TEAE leading to permanent discontinuation of peposertib [5, 10]: 3 (50) n (%)
Patients with any TEAE leading to study discontinuation [5, 10]: 0 n (%)
Peposertib dose at which inhibition of DNA-PK autophosphorylation was observed (DNA-PK): ≥ 150 mg
